Article PMC5958064, “Single cell analysis of kynurenine and System L amino acid transport in T cells” (Nature Communications, 2018)

Experiments:
activated T cells = assay: Radiolabelled 3H-glutamine uptake in activated T cells; assay type: cell-based, mouse; settings: IL-2 maintained TH1 cells and CTLs, BCH 5 mM
Method: (§1) Briefly, radiolabelled uptake was carried out using 1 × 10^6 cells resuspended in 0.4 ml uptake medium. Kynurenine uptake was carried out in warmed (37 °C) HBSS (GIBCO) containing [^3H] L-kynurenine (0.1 μCi/ml). 4 min uptake assays were carried out layered over 0.5 ml of 1:1 silicone oil (Dow Corning 550 (BDH silicone products; specific density, 1.07 g/ml):dibutyl phthalate (Fluka)). Cells were pelleted below the oil, the aqueous supernatant solution, followed by the silicon oil/dibutyl phthalate mixture was aspirated, and the cell pellet underneath resuspended in 200 μl NaOH (0.5 M) and β-radioactivity measured by liquid scintillation counting in a Beckman LS 6500 Multi-Purpose Scintillation Counter (Beckman Coulter). Similarly, glutamine uptake was performed using [^3H] L-glutamine (0.5 μCi/ml); tryptophan uptake was performed using [^3H] L-tryptophan (0.5 μCi/ml). Where indicated, 5 mM BCH, Kynurenine, L-glutamine or L-tryptophan were used, respectively, to quench radiolabeled ligand uptake. Where indicated, the sodium free buffer was prepared using TMACl as described in Baird et al.[35] Data are expressed as molecules radiotracer per cell per minute. [^3H] L-kynurenine, [^3H] L-tryptophan and [^3H] L-glutamine were obtained from Perkin Elmer. All other chemicals were obtained from Sigma.

D3 TH17cond CD4+ T cells = assay: FICZ uptake by flow cytometry (530 nm emission); assay type: cell-based, mouse; settings: FICZ 300 nM, 4 min, BCH 10 mM
Source text: Error bars are ±s.d. Individual points indicate biological replicates. MFIs are indicated in the histograms, data are from three biological replicates (a–g, i–j) and six (Kyn) or three biological replicates (FICZ) (h).
As a control, we used the AHR ligand 6-formylindolo[3,2-b]carbazole (FICZ), a tryptophan-derived photoproduct. The intrinsic fluorescence of FICZ has previously been used to monitor cellular accumulation of FICZ by flow cytometry using BP filter for 530/30 nm emission with 488 nm laser excitation[27]. […] Further evidence for the importance of System L transport for kynurenine action came from experiments using BCH treatment to inhibit System L transport.

System L transporter = target: T1, System L transporter (Mus musculus, UniProt Q9Z127); assay: Radiolabelled 3H-tryptophan uptake in TH1 cells and CTLs; assay type: cell-based; settings: BCH 5 mM
T1 construct: Radiolabelled tracer uptake in IL-2 maintained TH1 cells (top panels) and IL-2 maintained CTLs (bottom panels); endogenous in cells; host or cells: IL-2 maintained mouse TH1 cells and CTLs
Method: as §1

[1] = target: T2, System L transporter SLC7A5 (Mus musculus, UniProt Q9Z127); assay: Flow cytometry kynurenine uptake assay (450 nm fluorescence) in T cells; assay type: cell-based; settings: D3 TH17cond CD4+ T cells, kynurenine 100 μM, 4 min, BCH 10 mM
T2 construct: endogenous in cells

AHR = test system: AHR; parameters: method as in PMID 25657351, PMID 29279331; settings: cited from earlier work
mTORC1 = mTORC1 activity in CTLs after leucine removal and refeeding; assay type: cell-based, mouse; settings: CTLs removed from leucine, refed leucine 100uM ± Kyn 100uM
Source text: page 13: • We […] would not be able to measure the levels of in vivo ky nurenine uptake with this assay (for the reasons explained above). However, this is a pertinent question, and will relate to the total amount of available kynurenine compared to alternative System L substrates. The detailed micro-environmental metabolomics techniques required to perform this kind of analysis is beyond the scope of this paper, however we have tried to address this point in the discussion. Second, did CD4 T cells (Foxp3-) and Tregs (Foxp3+) from Lm-infected mice also i mport Ky n? […] This, also, is a very interesting aspect, however we feel that it is beyond the scope of this paper. Point 4: Data presented in Figures 4 & 5 show convincingly that SLC7A5 ablation in CD4 T cells abolishes Kyn uptake in CD4 T cells selectively and that imported Kyn triggers AhR signaling in CD4 T cells, respectively. However, no data is presented to address the biological significance of these findings, specifically regarding the reported ability of Kyn to suppress Th1 responses (e.g. IFNg production) or to reinforce Treg-mediated suppression of effector T cells via AhR signaling. […]

[2] = test system: Cyp1a1 (mRNA, through AHR); assay: Cyp1a1 mRNA induction in TH17cond CD4+ T cells (qPCR); assay type: cell-based, mouse; settings: mouse, day 3 TH17-conditioned primary CD4+ T cells, D3 TH17cond CD4+ T cells, 2 h; read-out: EC50 to drive Cyp1A1 mRNA expression
Method: To activate primary T cells, spleens and/or lymph nodes (LN) were removed, disaggregated and red blood cells lysed. Cells were stimulated with 1 μg/ml of the CD3 monoclonal antibody (2C11) and 2 μg/ml anti-CD28 (37.51; ebiosciences) to trigger the TCR. Naive CD4^+ T cells and 24 h TCR-activated CD4^+ T cells were purified using CD4 isolation kit (EasySep, STEMCELL Technologies). […] Proleukin, Novartis) for a further 3–5 days. To generate TH1s and TH17s, murine CD8^+ T cells were depleted from lymph node preparations using CD8 depletion kit (EasySep, STEMCELL Technologies). […] RnD Systems) and IL-2 (20 ng/ml) and for TH17s; cytokines IL-6 (50 ng/ml, Peprotech), IL-1β (10 ng/ml, Peprotech) and TGFβ (2 ng/ml, Peprotech). TH17s were cultured in IMDM (Gibco). All other cells were cultured in RPMI 1640 containing L-glutamine (Gibco). Culture media was supplemented with 10% FBS (Gibco), 50 μM β-mercaptoethanol (β-ME, Sigma) and penicillin/streptomycin (Gibco). Cells were incubated at 37 °C with 5% CO2 throughout. […] RNA was purified using the RNeasy RNA purification Mini Kit (Qiagen) (Genomic DNA was digested with RNase-free DNase (Qiagen) following manufacturer instructions) and reverse-transcribed using the iScript cDNA synthesis kit (BioRad). Quantitative PCR was performed in 96-well plate format using iQ SYBR Green-based detection (BioRad) on a BioRad iCycler.

T2 sequence (Q9Z127 whole entry): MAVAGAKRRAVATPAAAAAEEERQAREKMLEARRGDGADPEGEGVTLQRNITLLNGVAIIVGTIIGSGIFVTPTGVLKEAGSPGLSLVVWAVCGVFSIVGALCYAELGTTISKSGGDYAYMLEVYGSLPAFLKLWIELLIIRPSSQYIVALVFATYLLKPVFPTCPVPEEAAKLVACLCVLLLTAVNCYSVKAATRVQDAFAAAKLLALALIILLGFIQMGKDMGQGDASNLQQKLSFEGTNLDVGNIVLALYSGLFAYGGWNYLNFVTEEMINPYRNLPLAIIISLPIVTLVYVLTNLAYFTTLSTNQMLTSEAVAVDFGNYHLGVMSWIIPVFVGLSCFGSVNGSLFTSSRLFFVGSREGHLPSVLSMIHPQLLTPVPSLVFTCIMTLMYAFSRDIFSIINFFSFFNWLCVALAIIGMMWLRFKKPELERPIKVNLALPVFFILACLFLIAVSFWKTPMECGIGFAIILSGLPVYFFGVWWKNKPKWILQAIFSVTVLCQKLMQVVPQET
T2 sequence (P10852 whole entry partner): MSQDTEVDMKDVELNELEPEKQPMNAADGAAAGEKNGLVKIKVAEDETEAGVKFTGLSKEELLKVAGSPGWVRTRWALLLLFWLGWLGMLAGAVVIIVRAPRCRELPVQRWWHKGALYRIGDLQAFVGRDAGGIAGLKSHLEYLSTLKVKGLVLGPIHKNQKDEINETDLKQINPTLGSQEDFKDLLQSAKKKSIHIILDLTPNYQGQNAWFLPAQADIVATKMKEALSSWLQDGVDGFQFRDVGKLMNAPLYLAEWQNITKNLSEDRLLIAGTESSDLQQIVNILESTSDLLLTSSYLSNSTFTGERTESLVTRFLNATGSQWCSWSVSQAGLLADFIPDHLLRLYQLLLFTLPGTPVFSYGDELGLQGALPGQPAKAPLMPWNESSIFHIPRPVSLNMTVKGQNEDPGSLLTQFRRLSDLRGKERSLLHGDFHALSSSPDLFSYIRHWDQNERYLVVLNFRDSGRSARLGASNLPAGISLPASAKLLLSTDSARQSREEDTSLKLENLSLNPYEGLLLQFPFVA
T1 sequence (Q9Z127 whole entry): as the sequence (Q9Z127 whole entry) above
T1 sequence (P10852 whole entry partner): as the sequence (P10852 whole entry partner) above

| EC50 at 2 h [2] | Structure (SMILES) | effect on radiolabelled glutamine uptake (activated T cells) | effect on FICZ uptake (D3 TH17cond CD4+ T cells) | effect on 3H-tryptophan transport (System L transporter) | effect on kynurenine uptake [1] | concentrations needed to activate the AHR (AHR) | effect on mTORC1 activity (mTORC1) |
| --- | --- | --- | --- | --- | --- | --- | --- |
| – | NC1(C(=O)O)CC2CCC1C2 (stereo not shown) [BCH, 2-amino-2-norbornanecarboxylic acid] | failure to block | not affected | inhibited | inhibited | – | – |
| 11 µM | Nc1ccccc1C(=O)CC(N)C(=O)O (stereo not shown) [kynurenine] | – | – | – | – | μM levels | impair restoration of mTORC1 activity |
